# Measured values taken from patent US12564622B2, “Preventing cytokine release syndrome” (priority 2017, dated 2026).
# Where “and” joins values, the source holds several entries; their conditions need not be identical. Identical values can stand only once. Entries after “also recorded” stand apart in the source; their conditions may differ.
# How the values were obtained:
# [1] = system: C. novyi-NT therapy-induced toxicity in mice bearing large subcutaneous CT26 tumors; experiment: C. novyi-NT therapy of large subcutaneous CT26 tumors (therapy-induced toxicity); assay type: in vivo, mouse (BALB/c); conditions: for mice surviving: CT26 tumor-bearing BALB/c mice, 12×10^6 spores intratumorally, ANP (osmotic pump 12 μg/day) or metyrosine (IP pre-treatment) given with parental C. novyi-NT
# Description: ANP concentrations in the supernatant of ANP-C. novyi-NT culture and in mouse plasma were measured by an Elisa kit from Ray Biotech (EIAR-ANP-1) that recognizes both human and mouse ANP. ANP in the supernatant of ANP-C. novyi-NT culture were shown biological activities as described elsewhere (Lofton et al., 1990 Biochem. Biophys. Res. Comm., 172:793-9). Briefly, bacterial supernatants were applied to cultured bovine aortic endothelial cells (BAOEC, Cell Applications Inc.) for 3 minutes. cGMP concentrations were then measured in BAOEC lysates by the Direct cGMP Elisa Kit from Enzo following the manufacture's instruction.
# The colon cancer cell line CT26 was injected subcutaneously into the right flank of six to eight week old female Balb/C mice as described elsewhere (Qiao et al., 2011 Oncotarget, 2:59-68). Tumor sizes were measured with a caliper and calculated as ½*L*W*H as described elsewhere (Tomayko et al., 1989 Can. Chemother. Pharmacol., 24:148-54). When tumors reached 600-900 mm^3 after about two weeks, 12×10^6 spores of C. novyi-NT or ANP-C. novyi-NT at 3×10^6/μl were injected intratumorally into 4 central parts of the tumor with a 32 G Hamilton syringe needle. The bacteria typical germinated in the tumors within 24 hours, turning them necrotic. Hydration of the mice was supported by daily subcutaneous injections of […] saline. Human ANP (Sigma) was dissolved in saline, loaded in mini-osmotic pumps (ALZET) with a release rate of 12 μg/day and implanted subcutaneously in the back of mice 12 hours before the spore injection. Pumps loaded with saline served as controls. Metyrosine was dissolved in PBS and injected IP at 60 mg/kg/day for three days before the C. novyi injection to deplete catecholamines in storage. Two hours after the spore injection, 60 mg/kg of metyrosine was injected intraperitoneally (IP). For each of the next three days, IP injections of metyrosine at 30 mg/kg were administered. Control groups were injected with PBS at the same time points.
# Blood samples were collected into tubes containing 5 mM EDTA and 4 mM sodium metabisulfite after puncturing the facial vein or (terminally) by cardiac puncture. Subsequently, the samples were centrifuged and the plasmas were stored at −80° C. prior to analysis. Catecholamines (dopamine, norepinephrine and epinephrine) were measured using the 3-CAT Research ELISA kit from Labor Diagnostika Nord GmbH/Rocky Mountain Diagnostics. Cytokines were measured using Luminex assays based on Millipore Mouse and Human Cytokine/Chemokine panels.
# ANP concentrations in the supernatant of ANP-C. novyi-642 NT culture and in mouse plasma were measured with an Elisa kit from Ray Biotech (EIAR-ANP-1) that recognizes both human and mouse ANP. […] Briefly, bacterial supernatants were applied to cultured bovine aortic endothelial cells (BAOEC, Cell Applications Inc.) for 3 minutes. cGMP concentrations were then measured in BAOEC lysates by the Direct cGMP Elisa Kit from Enzo following the manufacture's instruction.
# The colon cancer cell line CT26 was injected subcutaneously into the right flank of six to eight weeks old female Balb/C mice as described elsewhere (see, e.g., Qiao et al. 2011 Oncotarget 2:59-68). Tumor sizes were measured with a caliper and calculated as ½*L*W*H as described elsewhere (see, e.g., Tomayko et al. 1989 Cancer Chemother Pharmacol 24:148-154). When tumors reached 600-900 mm^3 after about two weeks, 12×10^6 spores of C. novyi-NT or ANP-C. novyi-NT at 3×10^6/μl were injected intratumorally into 4 central parts of the tumor with a 32 G Hamilton syringe needle. The bacteria typical germinated in the tumors within 24 hours, turning them necrotic. Hydration of the mice was supported by daily subcutaneous injections of 500 μl saline. Human ANP (Sigma) was dissolved in saline, loaded in mini-osmotic pumps (ALZET) with a release rate of 12 μg/day and implanted subcutaneously in the back of mice 12 hours before the spore injection. Pumps loaded with saline served as controls. […]
# [2] = system: mouse peritoneal macrophages; experiment: Peritoneal macrophage catecholamine and cytokine production; assay type: cell-based; conditions: for cytokine release: ANP 5 μg/ml or metyrosine 2 mM
# Description: Isolation of elicited macrophages from mouse peritoneum followed previously described procedures with minor modifications (Zhang et al., “The isolation and characterization of murine macrophages,” Curr Protoc Immunol Chapter 14, Unit 14.1 (November, 2008)). Four days prior to the harvest, 1 ml of 3% Brewer's thioglycollate medium (BD) was injected IP in female 2-3 months old BALB/c mice. Mice were euthanized by cervical dislocation and the skin of the belly was cut open without penetrating the muscle layer. Using a syringe with a 22 G needle, 5 ml of cold PBS containing 5 mM EDTA was injected carefully into the peritoneal cavity. After massaging gently for 1-2 minutes, a 1-ml syringe without needle was used to extract the peritoneal contents containing residential macrophages. Cells were centrifuged at 400 g for 10 minutes at 4° C., resuspended in DMEM/F12 medium supplemented with 1% FBS and antibiotics and distributed in 48-well plates at a concentration of 0.5×10^6 cells/well. After incubation at 37° C. for 2 hours, cells were rinsed three times with 0.5 ml media and then 250 μl of media was added to each well. […] For stimulation, the cells were incubated for 24 hours with LPS at 50 μg/ml. […] To stimulate macrophages, they were exposed to epinephrine at 15 ng/ml for 24 hours at 37° C. After the incubation, supernatants were collected from the wells and mixed with 5 mM EDTA and 4 mM sodium metabisulfite for preservation of catecholamines and stored at −80° C. […] Thus, any epinephrine identified in the media must have been secreted by cells in the last 24 hours prior to harvesting the media.
# Isolation of elicited macrophages from mouse peritoneum followed previously described procedures with minor modifications66. Four days prior to the harvest, 1 ml of 3% Brewer's thioglycollate medium (BD) was injected IP in female 2-3 months old BALB/c mice or 4-6 weeks old conditional TH knockout mice. Mice were euthanized by cervical dislocation and the skin of the belly was cut open without penetrating the muscle layer. Using a syringe with a 25 G needle, 5 ml of cold PBS containing 5 mM EDTA was injected carefully into the peritoneal cavity. After massaging gently for 1-2 minutes, a 1-ml syringe without needle was used to extract the peritoneal contents containing residential macrophages. Cells were centrifuged at 400 g for 10 minutes at 4° C., resuspended in DMEM/F12 medium supplemented with 1% FBS and antibiotics and distributed in 48-well plates at a concentration of 0.5×10^6 cells/well. After incubation at 37° C. for 2 hours, cells were rinsed three times with 0.5 ml media and then 250 μl of media was added to each well. […] For stimulation, the cells were incubated for 24 hours with LPS at 50 μg/ml. […] To stimulate macrophages, they were exposed to epinephrine at 15 ng/ml for 24 hours at 37° C. After the incubation, supernatants were collected from the wells and mixed with 5 mM EDTA and 4 mM sodium metabisulfite for preservation of catecholamines and stored at −80° C. […] Thus, any epinephrine identified in the media must have been secreted by cells in the last 24 hours prior to harvesting the media.
# [3] = system: Raji-bearing NSGS mice with low tumour burden treated with hCART19; experiment: hCART19 treatment of Raji-bearing NSGS mice, low tumour burden; assay type: in vivo, mouse (NSGS); conditions: for hCART19-induced catecholamines and human and mouse cytokines: metyrosine IP or ANP by osmotic pump; for prevention of CRS (mouse cytokines IL-6, KC, MIP-2): with hCART19
# Description: Six to eight weeks old female NSG-SGM3 (NSGS) mice (NOD.Cg-Prkdcscid Il2rgtm1WjlTg (CMV-IL3, CSF2, KITLG) 1Eav/MloySzJ, Stock #013062) were purchased from the Jackson Laboratory. Raji cells were transfected with a luciferase construct via lentivirus to create Raji-luc cells. NSGS is a triple transgenic strain expressing human IL3, GM-CSF and SCF combine the features of the highly immunodeficient NOD scid gamma (NSG) mouse. One day before the injection of Raji cells, mice were irradiated at a dose of 2 Gy in a CIXD Xstahl device. In high tumor burden experiments in FIG. 5, 10^6 Raji-luc cells were injected IV via tail vein. Six days later, tumor loads were assessed using a Xenogen instrument and 15×10^6 hCART19 cells or untransduced T-cells were injected IV. In low tumor burden experiments in FIG. 6, 2×10^5 Raji-luc cells were injected IV via tail vein. Four days later, tumor loads were assessed using a Xenogen instrument and 15×10^6 hCART19 cells were injected IV. Metyrosine was injected IP at 60 mg/kg/day for three days before the hCART19 injection. On the day of CART19 injection, a fourth dose of 60 mg/kg was given IP and the mice were subsequently injected four more times at daily intervals at 30 mg/kg.
# [4] = plasma, 36 hours after spore injection, versus parental C. novyi-NT alone
# [5] = LPS 50 μg/ml, 24 hours, pre-incubation 10 minutes with ANP 5 μg/ml or metyrosine 2 mM
# [6] = LPS, epinephrine or the combination of both, metyrosine 2 mM
Structure (SMILES),mice surviving [1],"robust but not curative response, of surviving mice ([1]; CT26 tumors, surviving mice)","tissue damage and leukocyte/myeloid cell infiltration in lungs, liver, spleen ([1]; histology, versus parental C. novyi-NT)","circulating catecholamines [1, 4]","cytokine release ([2]; LPS 50 μg/ml, 24 hours)","catecholamine production [2, 5]","catecholamine production ([2]; epinephrine 15 ng/ml stimulated, ANP pre-treatment)","catecholamine and cytokine (IL-6, TNF-α, MIP-2, KC) production ([2]; epinephrine alone 15 ng/ml)",amplified inflammatory response ([2]; epinephrine in combination with LPS),hCART19-induced catecholamines and human and mouse cytokines ([3]; low tumour burden),"prevention of CRS (mouse cytokines IL-6, KC, MIP-2) [3]","circulating inflammatory cytokines and chemokines [1, 4]","catecholamines produced [2, 6]","cytokines released [2, 6]","animals with tumors eradicated (BLI below 10^6), day 6 ([3]; hCART19 plus metyrosine)","animals with tumors eradicated (BLI below 10^6), day 19 ([3]; hCART19 plus metyrosine)","reduction of lymphoma burden within one week versus hCART19 controls ([3]; hCART19 plus metyrosine, BLI)",long-term survival ([3]; low tumour burden)
"CC[C@H](C)[C@@H]1NC(=O)[C@H](CCCNC(=N)N)NC(=O)[C@H](CC(=O)O)NC(=O)[C@H](CCSC)NC(=O)[C@H](CCCNC(=N)N)NC(=O)CNC(=O)CNC(=O)[C@H](Cc2ccccc2)NC(=O)[C@@H](NC(=O)[C@H](CO)NC(=O)[C@H](CO)NC(=O)[C@H](CCCNC(=N)N)NC(=O)[C@H](CCCNC(=N)N)NC(=O)[C@H](CC(C)C)NC(=O)[C@@H](N)CO)CSSC[C@@H](C(=O)N[C@@H](CC(N)=O)C(=O)N[C@@H](CO)C(=O)N[C@@H](Cc2ccccc2)C(=O)N[C@@H](CCCNC(=N)N)C(=O)N[C@@H](Cc2ccc(O)cc2)C(=O)O)NC(=O)CNC(=O)[C@H](CC(C)C)NC(=O)CNC(=O)[C@H](CO)NC(=O)[C@H](CCC(N)=O)NC(=O)[C@H](C)NC(=O)CNC1=O [ANP, atrial natriuretic peptide]",~75% and ~73%,20% and 23%,major reductions,major reductions,reduction in the cytokine levels,reduce the production of all three major catecholamines; also recorded: suppress the increased production; also recorded: effectively blocked,inhibited this production,also suppressed,inhibited,abrogated,effective at preventing CRS,,,,,,,
"C[C@](N)(Cc1ccc(O)cc1)C(=O)O [metyrosine, α-methyl-tyrosine]",85%,,,substantially reduced,similarly inhibited,greatly reduced; also recorded: effectively blocked,,,,reduced,effective at preventing CRS,substantially reduced,greatly reduced,diminished,6 out of 10,4 out of 10,significantly more so,40%
